# Experimental data: patent US10550105B2 (Ribon Therapeutics Inc., priority 2018, dated 2020)
# Target: PARP7 (Homo sapiens (Human), UniProt Q7Z3E1)
# Assay: Enzymatic assay for inhibition of PARP7: TR-FRET displacement of biotinylated Probe A from the TIPARP active site
# Assay type: binding
# Conditions: Table A-1
# Method in brief: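 Percent inhibition derives from the ratio of 665 to 615 nm emission, which reports how much Probe A remains bound to TIPARP. Plates sat 30 min at 25° C before the time-resolved read (320 nm excitation).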
# Chain of PARP7 (Q7Z3E1 whole entry): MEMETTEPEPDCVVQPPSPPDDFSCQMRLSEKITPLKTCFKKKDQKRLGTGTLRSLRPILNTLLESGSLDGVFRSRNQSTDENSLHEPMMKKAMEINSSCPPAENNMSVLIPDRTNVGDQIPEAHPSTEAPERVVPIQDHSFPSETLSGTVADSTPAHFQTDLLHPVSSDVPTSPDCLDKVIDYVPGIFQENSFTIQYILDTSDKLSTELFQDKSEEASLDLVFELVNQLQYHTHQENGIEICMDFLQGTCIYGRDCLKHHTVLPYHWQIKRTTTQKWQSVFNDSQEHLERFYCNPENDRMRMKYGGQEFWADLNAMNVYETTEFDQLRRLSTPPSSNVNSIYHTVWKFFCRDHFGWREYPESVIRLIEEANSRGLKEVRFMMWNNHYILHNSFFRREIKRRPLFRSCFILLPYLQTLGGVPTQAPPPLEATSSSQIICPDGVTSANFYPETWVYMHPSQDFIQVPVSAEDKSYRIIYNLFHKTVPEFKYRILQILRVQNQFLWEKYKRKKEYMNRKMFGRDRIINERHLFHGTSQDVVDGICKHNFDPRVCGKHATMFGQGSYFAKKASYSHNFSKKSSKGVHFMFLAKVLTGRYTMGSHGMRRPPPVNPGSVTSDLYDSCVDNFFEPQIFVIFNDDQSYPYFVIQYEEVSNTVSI
row,SMILES,IC50
1,"NCCOc1cnc2c(c1)CN(c1cn[nH]c(=O)c1C(F)(F)F)C2 [Example 334, 5-(3-(2-Aminoethoxy)-5,7-dihydro-6H-pyrrolo[3,4-b]pyridin-6-yl)-4-(trifluoromethyl)pyridazin-3(2H)-one]",100 to 1000 nM
2,"CN(C)CCOc1cnc2c(c1)CN(c1cn[nH]c(=O)c1C(F)(F)F)C2 [Example 335, 5-(3-(2-(Dimethylamino)ethoxy)-5,7-dihydro-6H-pyrrolo[3,4-b]pyridin-6-yl)-4-(trifluoromethyl)pyridazin-3(2H)-one]",100 to 1000 nM
3,"O=c1[nH]ncc(N2Cc3cc(OCc4cccnc4)cnc3C2)c1C(F)(F)F [Example 336, 5-(3-(Pyridin-3-ylmethoxy)-5,7-dihydro-6H-pyrrolo[3,4-b]pyridin-6-yl)-4-(trifluoromethyl)pyridazin-3(2H)-one]",< 100 nM
4,"COc1ccnc2c1CN(c1cn[nH]c(=O)c1C(F)(F)F)C2 [Example 337, 5-(4-Methoxy-5,7-dihydro-6H-pyrrolo[3,4-b]pyridin-6-yl)-4-(trifluoromethyl)pyridazin-3(2H)-one]",< 100 nM
5,"CC(=O)N1CCC(Oc2ccnc3c2CN(c2cn[nH]c(=O)c2C(F)(F)F)C3)CC1 [Example 338, 5-(4-((1-Acetylpiperidin-4-yl)oxy)-5,7-dihydro-6H-pyrrolo[3,4-b]pyridin-6-yl)-4-(trifluoromethyl)pyridazin-3(2H)-one]",< 100 nM
6,"O=c1[nH]ncc(N2Cc3cccc(CNc4ccncc4)c3C2)c1C(F)(F)F [Example 339, 5-(4-((Pyridin-4-ylamino)methyl)isoindolin-2-yl)-4-(trifluoromethyl)pyridazin-3(2H)-one]",< 100 nM
7,"N#Cc1ccc(N2CCN(C(=O)c3cccc(OCC4c5ccccc5CN4c4cn[nH]c(=O)c4C(F)(F)F)c3)CC2)nc1 (stereo not drawn) [Example 340, 6-(4-(3-((2-(6-Oxo-5-(trifluoromethyl)-1,6-dihydropyridazin-4-yl)isoindolin-1-yl)methoxy)benzoyl)piperazin-1-yl)nicotinonitrile]",< 100 nM
8,"O=C(c1cccc(OCC2c3ccccc3CN2c2cn[nH]c(=O)c2C(F)(F)F)c1)N1CCN(c2ccccn2)CC1 (stereo not drawn) [Example 341, 5-(1-((3-(4-(Pyridin-2-yl)piperazine-1-carbonyl)phenoxy)methyl)isoindolin-2-yl)-4-(trifluoromethyl)pyridazin-3(2H)-one]",< 100 nM
9,"O=C(O)c1cccc(OCC2c3ccccc3CN2c2cn[nH]c(=O)c2C(F)(F)F)c1 (stereo not drawn) [Example 342, 3-((2-(6-Oxo-5-(trifluoromethyl)-1,6-dihydropyridazin-4-yl)isoindolin-1-yl)methoxy)benzoic acid]",≥ 1000 nM
10,"CN(CC1c2ccccc2CN1c1cn[nH]c(=O)c1C(F)(F)F)c1cccc(C(=O)N2CCN(c3ccc(C#N)cn3)CC2)c1 (stereo not drawn) [Example 343, 6-(4-(3-(Methyl((2-(6-oxo-5-(trifluoromethyl)-1,6-dihydropyridazin-4-yl)isoindolin-1-yl)methyl)amino)benzoyl)piperazin-1-yl)nicotinonitrile]",≥ 1000 nM
11,"CN(CC1c2ccccc2CN1c1cn[nH]c(=O)c1C(F)(F)F)c1cccc(C(=O)N2CCN(c3ccccn3)CC2)c1 (stereo not drawn) [Example 344, 5-(1-((Methyl(3-(4-(pyridin-2-yl)piperazine-1-carbonyl)phenyl)amino)methyl)isoindolin-2-yl)-4-(trifluoromethyl)pyridazin-3(2H)-one]",100 to 1000 nM
12,"CN(CC1c2ccccc2CN1c1cn[nH]c(=O)c1C(F)(F)F)c1cccc(C(=O)O)c1 (stereo not drawn) [Example 345, 3-(Methyl((2-(6-oxo-5-(trifluoromethyl)-1,6-dihydropyridazin-4-yl)isoindolin-1-yl)methyl)amino)benzoic acid]",≥ 1000 nM
13,"COc1nccc2c1CN(c1cn[nH]c(=O)c1C(F)(F)F)C2 [Example 346, 5-(4-Methoxy-1,3-dihydro-2H-pyrrolo[3,4-c]pyridin-2-yl)-4-(trifluoromethyl)pyridazin-3(2H)-one]",< 100 nM
14,"O=c1[nH]ncc(N2Cc3cccc(OC4CCN(CC(c5ccccc5)c5ccccc5)CC4)c3C2)c1C(F)(F)F [Example 347, 5-(4-((1-(2,2-Diphenylethyl)piperidin-4-yl)oxy)isoindolin-2-yl)-4-(trifluoromethyl)pyridazin-3(2H)-one]",< 100 nM
15,"N#Cc1ccc(N2CCN(C(=O)c3cccc(NCC4c5ccccc5CN4c4cn[nH]c(=O)c4C(F)(F)F)c3)CC2)nc1 (stereo not drawn) [Example 348, 6-(4-(3-(((2-(6-Oxo-5-(trifluoromethyl)-1,6-dihydropyridazin-4-yl)isoindolin-1-yl)methyl)amino)benzoyl)piperazin-1-yl)nicotinonitrile]",< 100 nM
16,"O=C(c1cccc(OC[C@H]2c3ccccc3CN2c2cn[nH]c(=O)c2C(F)(F)F)c1)N1CCN(c2ccccn2)CC1 [Example 350, (R)-5-(1-((3-(4-(Pyridin-2-yl)piperazine-1-carbonyl)phenoxy)methyl)isoindolin-2-yl)-4-(trifluoromethyl)pyridazin-3(2H)-one]",100 to 1000 nM
17,"O=C(c1cccc(NCC2c3ccccc3CN2c2cn[nH]c(=O)c2C(F)(F)F)c1)N1CCN(c2ccccn2)CC1 (stereo not drawn) [Example 351, 5-(1-(((3-(4-(Pyridin-2-yl)piperazine-1-carbonyl)phenyl)amino)methyl)isoindolin-2-yl)-4-(trifluoromethyl)pyridazin-3(2H)-one]",100 to 1000 nM

# Other lines, results leading:
row,IC50,SMILES
1,< 100 nM,"N#Cc1ccc(N2CCN(C(=O)c3cncc(OCC4c5ccccc5CN4c4cn[nH]c(=O)c4C(F)(F)F)c3)CC2)nc1 (stereo not drawn) [Example 352, 6-(4-(5-((2-(6-Oxo-5-(trifluoromethyl)-1,6-dihydropyridazin-4-yl)isoindolin-1-yl)methoxy)nicotinoyl)piperazin-1-yl)nicotinonitrile]"
2,< 100 nM,"N#Cc1ccc(N2CCN(C(=O)c3cncc(OC[C@@H]4c5ccccc5CN4c4cn[nH]c(=O)c4C(F)(F)F)c3)CC2)nc1 [Example 353, (S)-6-(4-(5-((2-(6-Oxo-5-(trifluoromethyl)-1,6-dihydropyridazin-4-yl)isoindolin-1-yl)methoxy)nicotinoyl)piperazin-1-yl)nicotinonitrile]"
3,100 to 1000 nM,"N#Cc1ccc(N2CCN(C(=O)c3cncc(OC[C@H]4c5ccccc5CN4c4cn[nH]c(=O)c4C(F)(F)F)c3)CC2)nc1 [Example 354, (R)-6-(4-(5-((2-(6-Oxo-5-(trifluoromethyl)-1,6-dihydropyridazin-4-yl)isoindolin-1-yl)methoxy)nicotinoyl)piperazin-1-yl)nicotinonitrile]"
4,< 100 nM,"N#Cc1ccc(N2CCN(C(=O)c3cc(OCC4c5ccccc5CN4c4cn[nH]c(=O)c4C(F)(F)F)ccn3)CC2)nc1 (stereo not drawn) [Example 355, 6-(4-(4-((2-(6-Oxo-5-(trifluoromethyl)-1,6-dihydropyridazin-4-yl)isoindolin-1-yl)methoxy)picolinoyl)piperazin-1-yl)nicotinonitrile]"
5,100 to 1000 nM,"N#Cc1ccc(N2CCN(C(=O)c3cc(OC[C@H]4c5ccccc5CN4c4cn[nH]c(=O)c4C(F)(F)F)ccn3)CC2)nc1 [Example 356, (R)-6-(4-(4-((2-(6-Oxo-5-(trifluoromethyl)-1,6-dihydropyridazin-4-yl)isoindolin-1-yl)methoxy)picolinoyl)piperazin-1-yl)nicotinonitrile]"
6,< 100 nM,"N#Cc1ccc(N2CCN(C(=O)c3cc(OC[C@@H]4c5ccccc5CN4c4cn[nH]c(=O)c4C(F)(F)F)ccn3)CC2)nc1 [Example 357, (S)-6-(4-(4-((2-(6-Oxo-5-(trifluoromethyl)-1,6-dihydropyridazin-4-yl)isoindolin-1-yl)methoxy)picolinoyl)piperazin-1-yl)nicotinonitrile]"
7,< 100 nM,"N#Cc1cccnc1N1CCN(C(=O)c2cccc(OCC3c4ccccc4CN3c3cn[nH]c(=O)c3C(F)(F)F)c2)CC1 (stereo not drawn) [Example 358, 2-(4-(3-((2-(6-Oxo-5-(trifluoromethyl)-1,6-dihydropyridazin-4-yl)isoindolin-1-yl)methoxy)benzoyl)piperazin-1-yl)nicotinonitrile]"
8,< 100 nM,"N#Cc1cccnc1N1CCN(C(=O)c2cccc(OC[C@@H]3c4ccccc4CN3c3cn[nH]c(=O)c3C(F)(F)F)c2)CC1 [Example 359, (S)-2-(4-(3-((2-(6-Oxo-5-(trifluoromethyl)-1,6-dihydropyridazin-4-yl)isoindolin-1-yl)methoxy)benzoyl)piperazin-1-yl)nicotinonitrile]"
9,≥ 1000 nM,"N#Cc1cccnc1N1CCN(C(=O)c2cccc(OC[C@H]3c4ccccc4CN3c3cn[nH]c(=O)c3C(F)(F)F)c2)CC1 [Example 360, (R)-2-(4-(3-((2-(6-Oxo-5-(trifluoromethyl)-1,6-dihydropyridazin-4-yl)isoindolin-1-yl)methoxy)benzoyl)piperazin-1-yl)nicotinonitrile]"
10,< 100 nM,"N#Cc1cnc(N2CCN(C(=O)c3cccc(OCC4c5ccccc5CN4c4cn[nH]c(=O)c4C(F)(F)F)c3)CC2)nc1 (stereo not drawn) [Example 361, 2-(4-(3-((2-(6-Oxo-5-(trifluoromethyl)-1,6-dihydropyridazin-4-yl)isoindolin-1-yl)methoxy)benzoyl)piperazin-1-yl)pyrimidine-5-carbonitrile]"
11,100 to 1000 nM,"CN1CCN(C(=O)c2cccc(OCC3c4ccccc4CN3c3cn[nH]c(=O)c3C(F)(F)F)c2)CC1 (stereo not drawn) [Example 362, 5-(1-((3-(4-Methylpiperazine-1-carbonyl)phenoxy)methyl)isoindolin-2-yl)-4-(trifluoromethyl)pyridazin-3(2H)-one]"
12,≥ 1000 nM,"O=C(c1cccc(OCC2c3ccccc3CN2c2cn[nH]c(=O)c2C(F)(F)F)c1)N1CCNCC1 (stereo not drawn) [Example 363, 5-(1-((3-(Piperazine-1-carbonyl)phenoxy)methyl)isoindolin-2-yl)-4-(trifluoromethyl)pyridazin-3(2H)-one]"
13,≥ 1000 nM,"N#Cc1cnc(N2CCN(C(=O)c3cccc(OC[C@H]4c5ccccc5CN4c4cn[nH]c(=O)c4C(F)(F)F)c3)CC2)nc1 [Example 364, (R)-2-(4-(3-((2-(6-oxo-5-(trifluoromethyl)-1,6-dihydropyridazin-4-yl)isoindolin-1-yl)methoxy)benzoyl)piperazin-1-yl)pyrimidine-5-carbonitrile]"
